Reference: patent US20160362432A1 (priority 2014, published 2016)

Molecular target: T1, Human factor D (Homo sapiens, UniProt P00746)
T1 construct: purified from human serum; purchased Complement Technology, Inc; host or cells: human serum (natural source)
Experiment: biochemical

T1 sequence (P00746 26-253): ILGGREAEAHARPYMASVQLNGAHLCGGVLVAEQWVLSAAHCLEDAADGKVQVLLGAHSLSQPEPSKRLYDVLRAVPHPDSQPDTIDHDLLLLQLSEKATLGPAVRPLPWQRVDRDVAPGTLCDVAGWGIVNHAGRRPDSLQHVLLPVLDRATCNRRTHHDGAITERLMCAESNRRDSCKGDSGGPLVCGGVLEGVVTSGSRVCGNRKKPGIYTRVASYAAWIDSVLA

Question: How did the IC50 turn out when `CCOP(=O)(OCC)c1ccc2c(C(C)=O)cn(CC(=O)N3[C@@H]4CCC[C@@H]4C[C@H]3C(=O)NCc3cccc(Cl)c3F)c2c1` [Compound 5, diethyl 3-acetyl-1-(2-((2S,3aR,6aR)-2-(3-chloro-2-fluorobenzylcarbamoyl)hexahydrocyclopenta [b]pyrrol-1(2H)-yl)-2-oxoethyl)-1H-indol-6-ylphosphonate] was run?
Answer: 1 to 10 µM
